# Measured values taken from patent US9199975B2, “Biaryl imidazole derivatives for regulating CYP17” (Asana Biosciences, LLC, priority 2011, dated 2015).
# Molecular target: T1, human CYP17 (Homo sapiens, UniProt P05093)
# T1 sequence (P05093 1-508): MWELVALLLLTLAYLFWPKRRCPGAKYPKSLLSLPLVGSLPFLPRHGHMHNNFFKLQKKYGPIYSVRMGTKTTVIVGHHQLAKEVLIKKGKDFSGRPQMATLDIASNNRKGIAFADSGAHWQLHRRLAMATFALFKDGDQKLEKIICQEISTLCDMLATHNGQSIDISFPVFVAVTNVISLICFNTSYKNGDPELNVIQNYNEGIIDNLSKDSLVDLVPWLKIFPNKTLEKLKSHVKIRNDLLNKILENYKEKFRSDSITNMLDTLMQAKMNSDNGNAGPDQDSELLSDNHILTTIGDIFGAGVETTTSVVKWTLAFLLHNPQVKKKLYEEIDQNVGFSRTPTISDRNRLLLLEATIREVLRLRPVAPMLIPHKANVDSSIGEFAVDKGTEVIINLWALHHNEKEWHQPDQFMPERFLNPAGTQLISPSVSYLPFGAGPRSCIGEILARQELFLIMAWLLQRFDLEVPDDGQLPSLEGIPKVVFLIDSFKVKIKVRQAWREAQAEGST
# Assay: Cell-based human CYP17 inhibition assay, H295R adrenocortical carcinoma cells
# Parameters: H295R Adrenocortical carcinoma cells [NCI-H295A, ATCC Number CRL-2128, American Type Culture Collection; host or cells: H295R adrenocortical carcinoma cells
# Conditions: 16 hours at 37° C., read-out: CYP17 (human H295R adrenal cells)
# Experimental: Cell-Based Human CYP17 Inhibition Assay
# A. Materials • 1. H295R Adrenocortical Carcinoma Cells and Growth Media: The media for the H295R Adrenocortical carcinoma cells [NCI-H295A, ATCC Number CRL-2128, American Type Culture Collection, Manassas, Va., US] (500 mL) was a DMEM:F12 Mix 1:1 with 5% […] BD Nu Serum; 1% (5 mL) ITS+Premix [BD Biosciences] and 1% Penstrep. • 2. LNCap-CYP17 Cells and Growth Media: Full length hCYP17a1 gene (NCBI Reference Sequence: NM_000102.3) was cloned in pCDNA3.1(+) vector between HindIII and XhoI site. The pCDNA3.1(+) vector contains the Neomycin resistance gene and was used for selection of stable cell line. The hCYP17a1 containing pCDNA3.1(+) was transfected into LNCap cells to create the LNCap-CYP17 cell line. The media for the LNCaP-CYP17 cells was RPMI 1640, 10% FBS, 1% PenStrep, Geneticin 400 μg/mL.
# The H295R cells or LNCaP-hCYP17 cells were subcultured and 30,000 cells per well were seeded in a poly-d lysine plate and incubated overnight at 37° C. The next day the media was removed and 200 µL of fresh media with ^3H3-17α-hydroxy-pregnenolone (1:1000) was added. 50 μL of serially diluted compounds from a 5× plate (5 times the final desired concentration) was added. The working concentration range for active, new compounds started from a high concentration of […] with 3-fold serial dilutions generating up to 10 concentrations. The serial dilution in the 100× plate (in DMSO) and the stamping of a 5× plate (in media) from the 100× plate were carried out using a TECAN liquid handling device.
# The plates were incubated overnight (16 hours) at 37° C. After 16 hours, the media was removed (approximately 220 μL) and an equal amount of chloroform was added, mixed and incubated for 30 minutes at 4 degrees. The plate was centrifuged at 4000 rpm for 15 minutes at 4° C., following which the top aqueous layer was carefully removed and added into a new deep well plate. An equal volume of activated 5% charcoal was added, mixed and incubated for 30 minutes at 4° C. The plate was then centrifuged at 4000 rpm for 15 minutes at 4° C. and the top layer carefully separated, avoiding any charcoal contamination, and placed in a white, clear bottom plate (plate cat #3610, Corning Life Sciences). An equal volume of Microscint™ 40 was added and mixed well. Following the incubation for 30 minutes, readings for the radiotracer were taken using a Microbeta® trilux.
row,SMILES,IC50
1,"CCc1cc(F)ccc1-c1ncc(C(CC)n2ccnc2)s1 (stereo not shown) [Example 46, 2-(2-Ethyl-4-fluoro-phenyl)-5-(1-imidazol-1-yl-propyl)-thiazole]",< 50 nM
2,"COc1ccc(-c2ccc(C(CC(C)C)n3ccnc3)nc2)cc1 (stereo not shown) [Example 62, 2-(1-Imidazol-1-yl-3-methyl-butyl)-5-(4-methoxy-phenyl)-pyridine]",50 to 200 nM
3,"CCC(c1ccc(-c2ccc(C#N)cc2)cn1)n1ccnc1 (stereo not shown) [Example 17, 4-[6-(1-Imidazol-1-yl-propyl)-pyridin-3-yl]-benzonitrile]",50 to 200 nM
4,"CCOC(=O)c1ccc(-c2ccc(C(CC)n3ccnc3)nc2)cc1 (stereo not shown) [Example 5, Ethyl 4-(6-(1-(1H-imidazol-1-yl)propyl)pyridin-3-yl)benzoate]",50 to 200 nM
5,"CCC(c1nnc(-c2ccc(F)cc2)s1)n1ccnc1 (stereo not shown) [Example 19, 2-(1-(1H-imidazol-1-yl)propyl)-5-(4-fluorophenyl)-1,3,4-thiadiazole]",50 to 200 nM
6,"CCC(c1cnc(-c2ccc(F)cc2F)s1)n1ccnc1 (stereo not shown) [Example 32, 2-(2,4-Difluoro-phenyl)-5-(1-imidazol-1-yl-propyl)-thiazole]",< 50 nM
7,"CC(c1cnc(-c2ccc(C(=O)O)cc2)s1)n1ccnc1 (stereo not shown) [Example 65, 4-[5-(1-Imidazol-1-yl-ethyl)-thiazol-2-yl]-benzoic acid]",201 to 10000 nM
8,"CC(C)(c1ccc(-c2ccc(O)cc2)s1)n1ccnc1 [Example 26, 4-[5-(1-Imidazol-1-yl-1-methyl-ethyl)-thiophen-2-yl]-phenol]",< 50 nM
9,"CCC(c1ccc(-c2ccc(C(=O)NC)cc2)cn1)n1ccnc1 (stereo not shown) [Example 9, 4-(6-(1-(1H-imidazol-1-yl)propyl)pyridin-3-yl)-N-methylbenzamide]",201 to 10000 nM
10,"CCC(c1ccc(-c2cccc(OC)c2)cn1)n1ccnc1 (stereo not shown) [Example 7, 2-(1-(1H-imidazol-1-yl)propyl)-5-(3-methoxyphenyl)pyridine]",< 50 nM
11,"COc1ccc(-c2ccc(C(C)n3ccnc3)s2)cn1 (stereo not shown) [Example 25, 5-[5-(1-Imidazol-1-yl-ethyl)-thiophen-2-yl]-2-methoxy-pyridine]",< 50 nM
12,"COc1ccc(-c2cccc(C(C)n3ccnc3)n2)cc1 (stereo not shown) [Example 42, 2-(1-Imidazol-1-yl-ethyl)-6-(4-methoxy-phenyl)-pyridine]",50 to 200 nM
13,"CC(c1ccc(-c2ccc(=O)n(C)c2)s1)n1ccnc1 (stereo not shown) [Example 20, 5-(5-(1-(1H-imidazol-1-yl)ethyl)thiophen-2-yl)-1-methylpyridin-2(1H)-one]",< 50 nM
14,"CC(c1ccc(-c2ccc(=O)n(C(C)C)c2)s1)n1ccnc1 (stereo not shown) [Example 21, 5-(5-(1-(1H-imidazol-1-yl)ethyl)thiophen-2-yl)-1-isopropylpyridin-2(1H)-one]",50 to 200 nM
15,"CCC(c1ccc(-c2ccc(O)cc2)cn1)n1ccnc1 (stereo not shown) [Example 50, 4-[6-(1-Imidazol-1-yl-propyl)-pyridin-3-yl]-phenol]",< 50 nM
16,"CCC(c1ccc(-c2ccc(F)cc2)cn1)n1ccnc1 (stereo not shown) [Example 29, 5-(4-Fluoro-phenyl)-2-(1-imidazol-1-yl-propyl)-pyridine]",< 50 nM
17,"CCC(c1cnc(-c2ccc(OC)nc2)s1)n1ccnc1 (stereo not shown) [Example 51, 5-[5-(1-Imidazol-1-yl-propyl)-thiazol-2-yl]-2-methoxy-pyridine]",50 to 200 nM

# More lines, now with the values ahead:
row,IC50,SMILES
1,< 50 nM,"CCC(c1ccc(-c2ccc(O)cc2)s1)n1ccnc1 (stereo not shown) [Example 4, 4-(5-(1-(1H-imidazol-1-yl)propyl)thiophen-2-yl)phenol]"
2,201 to 10000 nM,"CCC(c1ccc(-c2ccc(C(=O)O)cc2)cn1)n1ccnc1 (stereo not shown) [Example 6, 4-(6-(1-(1H-imidazol-1-yl)propyl)pyridin-3-yl)benzoic acid]"
3,50 to 200 nM,"COc1ccc(-c2ncc(C(C)n3ccnc3)s2)cn1 (stereo not shown) [Example 58, 5-[5-(1-Imidazol-1-yl-ethyl)-thiazol-2-yl]-2-methoxy-pyridine]"
4,< 50 nM,"CCC(c1ccc(-c2ccccc2O)cn1)n1ccnc1 (stereo not shown) [Example 37, 2-[6-(1-Imidazol-1-yl-propyl)-pyridin-3-yl]-phenol]"
5,50 to 200 nM,"COc1ccc(-c2ccc(C(C)n3ccnc3)nc2)cc1 (stereo not shown) [Example 15, 2-(1-(1H-imidazol-1-yl)ethyl)-5-(4-methoxyphenyl)pyridine]"
6,50 to 200 nM,"CCC(c1ccc(-c2ccc(OC)cc2)cn1)n1ccnc1 (stereo not shown) [Example 47, 2-(1-Imidazol-1-yl-propyl)-5-(4-methoxy-phenyl)-pyridine]"
7,< 50 nM,"CCC(c1cnc(-c2ccc(NC(=O)OC(C)(C)C)cc2)s1)n1ccnc1 (stereo not shown) [Example 31, {4-[5-(1-Imidazol-1-yl-propyl)-thiazol-2-yl]-phenyl}-carbamic acid tert-butyl ester]"
8,50 to 200 nM,"CCC(c1cnc(-c2cn[nH]c2)s1)n1ccnc1 (stereo not shown) [Example 44, 5-(1-Imidazol-1-yl-propyl)-2-(1H-pyrazol-4-yl)-thiazole]"
